Measurements reported in patent US20040034067A1, “Novel method of treatment” (priority 1999, published 2004).

Key:
Type in all cases: cell-based
[1] = tested on: Gelatinase B mRNA; assay: Gelatinase B mRNA expression in attached human neutrophils; settings: 1 μM of compound; 4 hours after neutrophil attachment; human neutrophils (FIG. 1B)
Procedure: (FIG. 1B): That the increase in Gelatinase B mRNA expression observed 4 hours after neutrophil attachment was reduced by treatment with 1 μM of Compound (I). Time zero (T0) refers to expression in naive human neutrophils prior to attachment.

[2] = tested on: MMP-9 release; assay: Inhibition of MMP-9 release from human neutrophils (human MMP-9 ELISA); settings: Neutrophil, RPMI 1640 plus 1% BSA, 4 hours, 4 individuals, 4-parameter logistic curve fit
Procedure: FIG. 2: Inhibition of MMP-9 release.by Compound (I)
Neutrophils were isolated by countercurrent centrifugal elutriation to a purity of at least 98% and were maintained in RPMI 1640 plus 1% BSA. Cells were cultured in 48 well plates and attached to the wells within 1 hour of plating. Compound (I) (referred to as“BRL49653” in FIG. 2) was included from the beginning of the experiment. After 4 hours the media was removed and a human MMP-9 ELISA assay (Amersham) was performed. Data (from 4 different individuals) were not suitable for pooling directly, so for the purposes of the figure they were normalised to percentage of no compound control. Asterisks denote p<0.05 using a paired Student's t-test performed on the raw data prior to normalisation.

[3] = tested on: PPARgamma mRNA; assay: PPARgamma mRNA expression during human neutrophil attachment to culture dishes; settings: data taken at 1 and 4 hours; human neutrophils (FIG. 1A)

IC50 [2] | Molecule | increase in Gelatinase B mRNA expression after neutrophil attachment [1] | PPARgamma mRNA during human neutrophil attachment [3]
10.6 nM | CN(CCOc1ccc(CC2SC(=O)NC2=O)cc1)c1ccccn1 (stereo not drawn) [Compound (I), 5-[4-[2-(N-methyl-N-(2-pyridyl)amino)ethoxy]benzyl]thiazolidine-2,4-dione] | reduced | –
– | GM-CSF: GM-CSF, treatment that further enhanced PPARgamma mRNA in attached human neutrophils | – | further enhanced
